For one data set, the system named is B16F10 cells. Briefly: Growth rate by Trypan blue exclusion, drug scheduling and progenies. In kind it is cell-based, murine. The method, then: The standard methanethiosulfonate (MTS)-3-(4,5-dimethylthiazol-2-yl)-5-(3-carboxymethoxyphenyl)-2-(4-sulphophenyl)-2H-tetrazolium inner salt solution assay was performed in order to examine the cytotoxic/cytostatic effect of GC2 on melanoma cells. Briefly, 7.5×10^3 cells were seeded in 96-well microtiter plates (Nunc). After an overnight incubation, serial dilutions of GC2 or DTIC were added in triplicate to a final volume of 100 μl. The blank was represented by a culture medium without cells containing the highest GC2 or DTIC concentration. After 24 h of incubation 20 μl MTS was added to each well and all samples were incubated for 3 h at 37° C. An absorbance of each well was read at 450 nm in a microplate reader. A percentage of cell viability was calculated considering that 100% cell viability was represented by an absorbance of untreated samples (blank absorbance). Alternatively, the number of viable cells was determined by Trypan blue exclusion test. Melanoma cells treated with GC2 were trypsinized and cells negative for blue staining (viable cells) were counted using a hemocytometer.
In order to be successful, chemotherapy schedule can be set based on a type of targeted cells, a rate, at which the cells divide, and a time, at which a given drug is likely to be effective. Melanoma cells have versatile mechanisms to survive treatments with most chemotherapeutical drugs. Whether a specific scheduling of GC2 therapy is important was investigated by studying how a growth rate of melanoma cells is affected by incubation with a single dose of GC2 for a prolonged time period and with multiple GC2 doses freshly added every 24 h. Because of its high proliferation rate, a metastatic cell line B16F10 was selected for these experiments. The cells were cultured for 72 h under the following conditions: 1) in the absence of GC2 (control sample-C), 2) with a single GC2 dose of 6.0 μM (sample-S), and 3) with multiple GC2 doses of 6.0 μM freshly added every 24 h ([…]). A number of viable cells was determined by Trypan blue exclusion test and a growth rate was calculated in order to estimate an anti-proliferative effect of GC2. Under normal drug-free conditions, B16F10 cells approximately double their number every 24 h (FIG. 4A). Incubation with a single dose of GC2 decreased the growth rate from 2.29 to 1.26 for 24 h incubation and from 7.26 to 3.7 for 72 h incubation. […] Cells treated with GC2 freshly added every 24 h had the lowest growth rate of 2.02.
Equal numbers of B16F10 cells previously cultured for 72 h 1) without GC2 (C), 2) in the presence of a single GC2 dose of 6 μM (S) or 3) multiple GC2 doses of 6 μM freshly added every 24 h (S*) were further incubated either without GC2 (0 μM) or with a lower GC2 concentration (3 μM). At the end of a 48 h incubation period a number of viable cells was determined by Trypan blue exclusion test and a percentage of cell growth was calculated considering a cell number cultured with 3 μM of GC2 for 48 h to be 100%. Cells cultured with a single dose of GC2 for 72 h followed by 48 h without the drug proliferated at a rate of 99%. The rate decreased to 70% after the additional 48 h incubation of these cells in the presence of 3 μM GC2 (FIG. 4C). […] The lowest growth rate, (5%) was registered for the cells previously exposed to multiple doses of freshly added drug for 72 h and then further grown for 48 h in the presence of 3 μM GC2.

A short description of data set [1]: Solubility in solvent mixture. The class given is physicochemical. The conditions noted are these: solvent mixture (GC2 buffer).
For another data set, the system named is SKMel28 cells. Briefly: Acidic vesicular organelles, Lysotracker Red vital staining. The conditions noted are these: SKMel28, 6 μM, 3 h and 8 h. The class given is cell-based. The procedure:
Tumor cells were cultured 24 h on cover glasses, treated with GC2, and processed as described in Negroiu, G., et al. J. Biol. Chem. 278, 27035-27042, 2003. The acidic vesicular compartments were detected following incubation of live cells GC2 treated with Lysotracker® Red (0.125 μl/ml culture medium) for 30 min at 37° C. Fixed cells were incubated with the following primary antibodies: mouse anti-EEA1 (1:100), human-CD107A (anti-Lamp1) (1:50), a mouse anti-α tubulin (1:200) followed by an appropriate Alexa Fluor® 488 conjugated secondary antibodies (1:400) or with Alexa Fluor® 594 phalloidin. Finally, nuclei of fixed cells were stained with 5 mM Hoechst dye 33342. Cells were washed three times with PBS and mounted in Vectashield® mounting medium.
Acidic compartments of untreated and GC2-treated tumor cells were differentiated using a lysosomotropic agent LysoTracker® Red (LT), a marker for tracking acidic organelles in live cells. These probes can be used to investigate the acidification of lysosomes and alteration of their function or trafficking that occur in the cell. In untreated SKMel28 cells (FIG. 5Aa) the LT probe has a moderate fluorescence as fine punctate structures distributed within the entire cell cytoplasm and occasionally at the cell periphery.

Another data set deals with MelJuSo cells. As to the kind of experiment: Autophagic vesicle detection with GFP-LC3. The class given is cell-based, human. The conditions noted are these: MelJuSo transfected with GFP-LC3, 6 μM. The method, then:
LC3 is a protein recruited to an autophagosome membrane. The recruitment process is essential for autophagy and LC3 is a specific marker of the process, see Kabeya Y., et al., EMBO J. 19, 5720-5728, 2000. […] Cells were transiently transfected with GFP-LC3 plasmid DNA using the liposomal transfection kit Lipofectamine PLUS™ Reagent (Gibco-BRL) as described in Negroiu, G., et al., J. Biol. Chem. 278, 27035-27042, 2003. 24 h after transfection cells were treated with GC2 for the indicated time periods and analyzed by fluorescence microscopy.
The localization of LC3 (microtubule-associated protein1 light chain 3), which is an established marker for autophagosome membranes, see e.g. Kabeya, Y., et al. EMBO J., 19, 5720-5728, 2000, was examined in cells treated with GC2. LC3 is newly synthetised and recruited to autophagosomal membranes when autophagy is activated and is detected as cup- and ring shaped structures, see e.g. Mizushima, N. et al. Int. J. Biochem. & Cell Biol. 36, 2491-2502, 2004. […] In GC2-treated MNT-1 cells, very few vacuoles were observed by a phase contrast microscopy. The MNT-1 cell line was also the least positive for autophagic marker (data not shown).

SMILES strings stand for the structures.

With `CC(=O)O.CCCCCCCCCN1[C@@H](CO)[C@@H](O)[C@H](O)[C@@H]1CCCCCCCC` [GC2, (2S,3R,4R,5S)-3,4-dihydroxy-N-nonyl-5-octyl-2 hydroxymethylpyrrolidinium acetate], in the data set with B16F10 cells (Mus musculus, B16-F10, multiple 6 μM doses 72 h, then 48 h with 3 μM GC2, read-out: growth rate of progenies (% of control growth)), the activity at 3 µM is 5%. For the same compound, in the data set with B16F10 cells (Mus musculus, B16-F10, single 6 μM dose 72 h, then 48 h without drug, read-out: proliferation rate of progenies (% of control growth)), the activity at 6 µM came to 99%. Further, the “proliferation rate of progenies (% of control growth)” value is on record as 43% in the data set on B16F10 cells (multiple 6 μM doses 72 h, then 48 h without drug) and 70% with B16F10 cells (single 6 μM dose 72 h, then 48 h with 3 μM GC2). The “growth rate (ratio of cell number to initial cell number)” value is given as 2.02 in the data set on B16F10 cells (multiple 6.0 μM doses freshly added every 24 h, 72 h, control 7.26); 1.26 in the data set with B16F10 cells (single dose 6.0 μM, 24 h incubation, control 2.29); 3.7 in the data set on B16F10 cells (single dose 6.0 μM, 72 h incubation, control 7.26). Moreover, in data set [1], the solubility result was “good solubility”. Further, the “Lysotracker Red probe distribution (acidic vesicles)” value in the data set on SKMel28 cells is recorded as “accumulates in large, bright red fluorescent vesicles in a time dependent manner”. Further, the “GFP-LC3 distribution (autophagic marker)” value with MelJuSo cells is “punctate pattern of bright fluorescence”.
